{
  "source": "patent US20100035822A1",
  "about": "“PROLINE-RICH PEPTIDES, PHARMACEUTICAL COMPOSITION, USE OF ONE OR MORE PEPTIDES AND METHOD OF TREATMENT” (priority 2006, published 2010)",
  "key": {"[1]": {"tested_on": "total kidney protein extract", "assay": "NO production in total kidney protein extract", "type": "biochemical, mouse", "details": "kidney homogenate of mice; 0.01 to 50 μmol, preferentially 0.5 to 2 μmol peptide", "description": "The release of NO was evaluated by means of nitrate and nitrit accumulation in total kidney protein extract of male Swiss mice weighing 30-35 g, as described by Wu and Yen (Wu C C and Yen M H. Higher level of plasma nitric oxide in spontaneously hypertensive rats. Am. J. Hypertension 12: 476-482, 1999). Animals were subjected to perfusion with 0.9% saline solution containing heparin (1:1000). Kidneys were collected and homogenized in cold 50 mM Tris-HCl, 0.1 mM EDTA, 0.1 mM EGTA, 12 mM β-mercaptoethanol, and 1 mM phenylmethylsulphonyl fluoride, pH 7.4 buffer in a homogenizer (Polytron PT MR 3000, Kinematic AG, Littau). Homogenates were incubated with 10 nM, 1 μM, or 10 μM peptide SEQ ID NO 8 in a final volume of 500 μl for 1 hour. Trichloracetic acid (1%) was added at 4° C., and after 20 minutes the mixture was centrifuged at 13.000 g for 7 min at 4° C. A saturated solution of vanadium chloride (VCl3) in 1 M HCl at 90° C. was added to the supernatant, and the concentration of NO was determined by gas chemiluminescence by means of the reaction of NO with ozone in a NO analyzer (NOA^TM280; Sievers Inc.). The concentration of nitrate was determined using a standard curve of NaNO3 and the Bag software 2.2 (Sievers Instruments Inc.)."}, "normotensive Wistar rats": {"tested_on": "normotensive Wistar rats", "type": "in vivo, rat", "details": "10 μmoles/Kg of body weight i.v.; 6 hours", "description": "In vivo studies on the effect of peptides of the present invention were performed on adult male spontaneously hypertensive rats, and normotensive Wistar rats (Rattus novergicus) weighing 250 to 350 g. Animals had free access to chow (Nuvilab) and water, and were submitted to a light-dark cycle of 12 hours each. Procedures involving animals and their care were conducted according to Giles [Giles A. R. Guidelines for the use of animals in biomedical research. Thromb. Haemost. 58: 1078-1084, 1987].\nBefore drug administration, cardiovascular parameters of the rats were monitored for 40 minutes. Intravenous (I.V.) injection of Ang I (100 ng) was performed in bolus in a total volume of 0.1 mL. 60 minutes after the start of register, 71 nmoles/Kg body weight of peptides SEQ ID NO 8 or SEQ ID NO 4, or captopril were administered I.V. in a total volume of 0.5 mL of 0.9% NaCl solution. […] Arterial blood pressure and heart frequency were continuously monitored for 360 minutes.\nAdult male Wistar normotensive rats, weighing between 250 and 350 g, were used in the experimental evaluation of the hypotensive effect of SEQ ID NO 8, as described in Example 12. An i.v. dose of 10 μmoles/Kg of body weight of peptide SEQ ID NO 8 was injected, and arterial blood pressure was monitored for 6 hours (results not shown)."}, "SK-N-AS cells": {"tested_on": "SK-N-AS cells", "assay": "NO (nitrite) production in SK-N-AS neuroblastoma cells", "type": "cell-based, human", "details": "24 hours incubation", "description": "Human neurobalsotma cells (SK-N-AS, ATCC no. CRL-2137) were kept in DMEM, supplemented with 10% FBS (fetal bovine serum) and 1% non-essential amino acids, at 5% CO2 atmosphere, at 37° C., and 95% relative humidity. Cells were treated with trypsin, and replicated when an adequate cell concentration had been reached. The medium was exchanged after 12 hours, and later, every third day.\nThe method of Feelisch et al. (Feelisch et al., Concomitant S-, N-, and heme-nitros(yl)ation in biological tissues and fluids: implications for the fate of NO in vivo. FASEB J 16: 1775-1785, 2000) was employed to analyze NO production in the endothelial and neuronal cells described above.\nCells were grown in Petri dishes to 80% confluence. Peptide SEQ ID NO 8 was added in the concentration range of 0-8 μM to HUVEC cells, and 0-100 μM to SK-N-AS cells, and incubation continued for 24 hours. Subsequently, 1 ml of medium was retrieved (extracellular medium), and replaced by 1 ml 10 mM N-ethylmaleimide. Cells were washed in PBS, and lyzed in RIPA buffer (50 mM Tris pH 7.5, 150 mM NaCl, 1% Nonidet p-40 (NP-40) and 0.5% Na-desoxycholate, 0.1% SDS, 1 mM DTPA, and 10 mM N-ethylmaleimide). Lysats were collected and incubated on ice for 20 minutes and centrifuged. Supernatants were kept at −80° C. […] The concentration of nitrite, derived from NO, was measured in the extracellular and the intracellular media."}, "[2]": {"tested_on": "HUVEC cells (human umbilical vessel endothelial cells)", "assay": "NO (nitrite) production in HUVEC cells", "type": "cell-based", "details": "24 hours incubation", "description": "HUVEC cells (human umbilical vessel endothelial cells) were obtained from umbilical vessels, a gift from the University Hospital of the University of São Paulo. Vessels were washed externally with ethanol 96%, and after a diagonal cut at the end of the vessel, a catheter was introduced into the vessel vein, and attached to a three way valve. The vein was washed with 20 ml sterile saline, and the other end of the vessel was tied. One milliliter of a collagenase type IV solution was introduced (0.2 mg/ml/cm of umbilical vessel). The vessel was transferred to a Petri dish (10 cm^2), and incubated for 15 minutes at 37° C. Cells contained inside the cord were removed by massage, and transferred to a sterile tube. Bovine fetal serum was added to a final concentration of 10%, and the suspension was centrifuged for 10 minutes at 3.000 g at 4° C., and the cell pellet was resuspended in 2 ml complete medium (40% Medium 199, 40% DMEM, 18% bovine fetal serum, 1% L-glutamine, 1% penicillin/streptomycin). The cell suspension was transferred to a bottle, previously treated with a 1% gelatin solution (30 min at 4° C.), and 5 mL complete medium was added. The bottle was incubated at 37° C. at 5% CO2 atmosphere. […]\nCells were grown in Petri dishes to 80% confluence. […] The concentration of nitrite, derived from NO, was measured in the extracellular and the intracellular media."}},
  "data": [
    {"substance": "<ENWPHPQIPP [SEQ ID NO 8]", "values": [
      {"measurement": "increase of nitrite production (generated from NO)", "setting": "[1]", "value": 5, "unit": "fold"},
      {"measurement": "hypotensive effect in normotensive rats", "setting": "normotensive Wistar rats", "value": "no significant hypotensive effect"},
      {"measurement": "increase of NO generation", "setting": "SK-N-AS cells", "value": "approximately 100%"},
      {"measurement": "increase of NO generation", "setting": "[2]", "value": "approximately 100%"}
    ]}
  ]
}
